Test results taken from patent publication US20120196791A1, “COMBINATION THERAPIES USING ANTIBACTERIAL AMINOGLYCOSIDE COMPOUNDS” (Achaogen, Inc., priority 2009, published 2012).
Like-named read-outs stand apart in the source and are kept apart here. Values belong to the compound of their own block, whether it stands above or below them.

Key:
Type in all cases: cell-based
S. aureus strains = test: MIC by macrodilution
Source text: (§1) “MIC”, which stands for minimum inhibitory concentration, refers to that concentration, in μg/mL, of a compound of this invention that inhibits the growth and/or proliferation of a strain of bacteria by at least 80% compared to an untreated control as determined by visual inspection of a liquid culture.
Synergy time-kill was used to test the activity of Example 1, alone and in combination with daptomycin (DAP), ceftobiprole (BPR), and linezolid (LZD), against 25 S. aureus strains. 25 clinical isolates included 2 hVISA, 2 VISA, and 5 VRSA, 10 hospital acquired and 6 community acquired MRSA strains. MICs were determined by macrodilution and time-kill was used to verify the activity of all four agents alone. MICs were predetermined by macrodilution in cation-adjusted Mueller-Hinton broth (BBL Microbiology Systems, Cockeysville, Md.) according to standard methodology. Daptomycin susceptibility testing was performed in Mueller-Hinton broth adjusted to 50 μg/mL of calcium according to standard methodology. All strains were tested by time-kill methodology with each compound alone according to standard methods. Cultures were initiated by adding 35-μL aliquots of suspensions into 5 mL of broth. Viability counts (100-μL aliquots) in synergy tests were performed at 0, 3, 6, 12, and 24 h in a shaking water bath at 35° C. with final inocula of between 5×10^5 and 5×10^6 CFU/mL. Only plates with 30 to 300 colonies were counted.

P. aeruginosa strains [1] = test: MIC by macrodilution
Source text: as §1
Synergy time-kill was used to test the activity of Example 1, alone and in combination with cefepime, doripenem, imipenem and piperacillin/tazobactam, against 10 P. aeruginosa strains. The 10 clinical isolates included 5 cefepime resistant, 5 doripenem resistant, 8 imipenem resistant, and 9 piperacillin/tazobactam resistant strains. MICs were determined by macrodilution and time-kill was used to verify the activity of all five agents alone. MICs were predetermined by macrodilution in cation-adjusted Mueller-Hinton broth (BBL Microbiology Systems, Cockeysville, Md.) according to standard methodology. All strains were tested by time-kill methodology with each compound alone according to standard methods. Strains were examined by PCR for genes encoding aminoglycoside modifying enzymes (AMEs). Cultures were initiated by adding 35-μL aliquots of suspensions into 5 mL of broth. Viability counts (100-μL aliquots) in synergy tests were performed at 0, 3, 6, 12, and 24 h in a shaking water bath at 35° C. with final inocula of between 5×10^5 and 5×10^6 CFU/mL. Only plates with 30 to 300 colonies were counted.

P. aeruginosa strains [2] = test: Synergy time-kill; conditions: with each drug tested, majority of isolates, 24 h
[3] = Staphylococcus aureus, ATCC 33591 / MRSA, Strain 13, ATCC33591 HA-MRSA, read-out: MIC
[4] = Staphylococcus aureus, MRSA, Strain 6, CA-MRSA, PVL+, read-out: MIC
[5] = Staphylococcus aureus, MRSA, Strain 7, CA-MRSA, PVL+, read-out: MIC
[6] = Staphylococcus aureus, MRSA, Strain 8, CA-MRSA, PVL+, read-out: MIC
[7] = Staphylococcus aureus, MRSA, Strain 14, HA-MRSA, read-out: MIC
[8] = Staphylococcus aureus, MRSA, Strain 15, HA-MRSA, read-out: MIC
[9] = Staphylococcus aureus, MRSA, Strain 16, HA-MRSA, read-out: MIC
[10] = Staphylococcus aureus, MRSA, Strain 17, HA-MRSA, read-out: MIC
[11] = Staphylococcus aureus, MRSA, Strain 18, HA-MRSA, read-out: MIC
[12] = Staphylococcus aureus, MRSA, Strain 19, HA-MRSA, read-out: MIC
[13] = Staphylococcus aureus, MRSA, Strain 20, HA-MRSA, read-out: MIC
[14] = Staphylococcus aureus, MRSA, Strain 21, HA-MRSA, read-out: MIC
[15] = Staphylococcus aureus, MRSA, Strain 22, HA-MRSA, read-out: MIC
[16] = Staphylococcus aureus, MRSA, Strain 23, CA-MRSA PVL+, read-out: MIC
[17] = Staphylococcus aureus, MRSA, Strain 24, CA-MRSA PVL+, read-out: MIC
[18] = Staphylococcus aureus, MRSA, Strain 25, CA-MRSA PVL neg, read-out: MIC
[19] = Staphylococcus aureus, Strain 9, hVISA, read-out: MIC
[20] = Staphylococcus aureus, Strain 10, hVISA, read-out: MIC
[21] = Staphylococcus aureus, VISA, Strain 11, VISA, read-out: MIC
[22] = Staphylococcus aureus, VISA, Strain 12, VISA, read-out: MIC
[23] = Staphylococcus aureus, VRSA, Strain 1, VRSA, read-out: MIC
[24] = Staphylococcus aureus, VRSA, Strain 2, VRSA, read-out: MIC
[25] = Staphylococcus aureus, VRSA, Strain 3, VRSA, read-out: MIC
[26] = Staphylococcus aureus, VRSA, Strain 4, VRSA, read-out: MIC
[27] = Staphylococcus aureus, VRSA, Strain 5, VRSA, read-out: MIC
[28] = Staphylococcus aureus, range over 25 S. aureus strains, read-out: MICs of each agent alone

MIC (S. aureus strains; [3]): 2 µg/mL
MIC (S. aureus strains; [4]): 4 µg/mL
MIC (S. aureus strains; [5]): 4 µg/mL
MIC (S. aureus strains; [6]): 2 µg/mL
MIC (S. aureus strains; [7]): 4 µg/mL
MIC (S. aureus strains; [8]): 4 µg/mL
MIC (S. aureus strains; [9]): 4 µg/mL
MIC (S. aureus strains; [10]): 4 µg/mL
MIC (S. aureus strains; [11]): 4 µg/mL
MIC (S. aureus strains; [12]): 4 µg/mL
MIC (S. aureus strains; [13]): 4 µg/mL
MIC (S. aureus strains; [14]): 4 µg/mL
MIC (S. aureus strains; [15]): 4 µg/mL
MIC (S. aureus strains; [16]): 4 µg/mL
MIC (S. aureus strains; [17]): 4 µg/mL
MIC (S. aureus strains; [18]): 4 µg/mL
MIC (S. aureus strains; [19]): 4 µg/mL
MIC (S. aureus strains; [20]): 2 µg/mL
MIC (S. aureus strains; [21]): 2 µg/mL
MIC (S. aureus strains; [22]): 4 µg/mL
MIC (S. aureus strains; [23]): 2 µg/mL
MIC (S. aureus strains; [24]): 4 µg/mL
MIC (S. aureus strains; [25]): 2 µg/mL
MIC (S. aureus strains; [26]): 4 µg/mL
MIC (S. aureus strains; [27]): 2 µg/mL
MIC (S. aureus strains; [28]): 2 to 4 µg/mL
SMILES: CC(=O)NC[C@H]1CN(c2ccc(N3CCOCC3)c(F)c2)C(=O)O1 [Linezolid, linezolid]

SMILES: CN[C@@H]1[C@@H](O)[C@@H](O[C@@H]2[C@@H](O)[C@H](O[C@H]3OC(CNCCO)=CC[C@H]3N)[C@@H](N)C[C@H]2NC(=O)[C@@H](O)CCN)OC[C@]1(C)O [Example 1, 6′-(2-Hydroxy-ethyl)-1-(4-amino-2(S)-hydroxy-butyryl)-sisomicin]
MIC (S. aureus strains; Strain 1, VRSA): 1.0 µg/mL
MIC (S. aureus strains; Strain 2, VRSA): 0.5 µg/mL
MIC (S. aureus strains; Strain 3, VRSA): 1.0 µg/mL
MIC (S. aureus strains; Strain 4, VRSA): 2.0 µg/mL
MIC (S. aureus strains; Strain 5, VRSA): 1.0 µg/mL
MIC (S. aureus strains; Strain 6, CA-MRSA, PVL+): 4.0 µg/mL
MIC (S. aureus strains; Strain 7, CA-MRSA, PVL+): 2.0 µg/mL
MIC (S. aureus strains; Strain 8, CA-MRSA, PVL+): 4.0 µg/mL
MIC (S. aureus strains; Strain 9, hVISA): 1.0 µg/mL
MIC (S. aureus strains; Strain 10, hVISA): 1.0 µg/mL
MIC (S. aureus strains; Strain 11, VISA): 4.0 µg/mL
MIC (S. aureus strains; Strain 12, VISA): 4.0 µg/mL
MIC (S. aureus strains; Strain 13, ATCC33591 HA-MRSA): 8.0 µg/mL
MIC (S. aureus strains; Strain 14, HA-MRSA): 2.0 µg/mL
MIC (S. aureus strains; Strain 15, HA-MRSA): 2.0 µg/mL
MIC (S. aureus strains; Strain 16, HA-MRSA): 2.0 µg/mL
MIC (S. aureus strains; Strain 17, HA-MRSA): 4.0 µg/mL
MIC (S. aureus strains; Strain 18, HA-MRSA): 2.0 µg/mL
MIC (S. aureus strains; Strain 19, HA-MRSA): 2.0 µg/mL
MIC (S. aureus strains; Strain 20, HA-MRSA): 2.0 µg/mL
MIC (S. aureus strains; Strain 21, HA-MRSA): 4.0 µg/mL
MIC (S. aureus strains; Strain 22, HA-MRSA): 4.0 µg/mL
MIC (S. aureus strains; Strain 23, CA-MRSA PVL+): 4.0 µg/mL
MIC (S. aureus strains; Strain 24, CA-MRSA PVL+): 4.0 µg/mL
MIC (S. aureus strains; Strain 25, CA-MRSA PVL neg): 2.0 µg/mL
MICs of each agent alone (S. aureus strains; range over 25 S. aureus strains): 0.5 to 8 µg/mL
MICs for strains with genes encoding AMEs (P. aeruginosa strains [1]; 3 strains: 2 ant(2″)-Ia, 1 aac(6′)-Ib): equivalent to strains lacking AMEs
MIC (P. aeruginosa strains [1]; Strain 1): 64 µg/mL
MIC (P. aeruginosa strains [1]; Strain 2): 16 µg/mL
MIC (P. aeruginosa strains [1]; Strain 3): 16 µg/mL
MIC (P. aeruginosa strains [1]; Strain 4): 16 µg/mL
MIC (P. aeruginosa strains [1]; Strain 5): 32 µg/mL
MIC (P. aeruginosa strains [1]; Strain 6): 8 µg/mL
MIC (P. aeruginosa strains [1]; Strain 7): 16 µg/mL
MIC (P. aeruginosa strains [1]; Strain 8): 16 µg/mL
MIC (P. aeruginosa strains [1]; Strain 9): 16 µg/mL
MIC (P. aeruginosa strains [1]; Strain 10): 32 µg/mL
MICs of each agent alone (P. aeruginosa strains [1]; range over 10 P. aeruginosa strains): 8 to 64 µg/mL
Example 1 concentration yielding synergy (P. aeruginosa strains [2]): ¼

MIC (P. aeruginosa strains [1]; Pseudomonas aeruginosa, Strain 1, read-out: MIC): 2 µg/mL
MIC (P. aeruginosa strains [1]; Pseudomonas aeruginosa, Strain 2, read-out: MIC): 0.25 µg/mL
MIC (P. aeruginosa strains [1]; Pseudomonas aeruginosa, Strain 3, read-out: MIC): 4 µg/mL
MIC (P. aeruginosa strains [1]; Pseudomonas aeruginosa, Strain 4, read-out: MIC): 2 µg/mL
MIC (P. aeruginosa strains [1]; Pseudomonas aeruginosa, Strain 5, read-out: MIC): 8 µg/mL
MIC (P. aeruginosa strains [1]; Pseudomonas aeruginosa, Strain 6, read-out: MIC): 0.5 µg/mL
MIC (P. aeruginosa strains [1]; Pseudomonas aeruginosa, Strain 7, read-out: MIC): 8 µg/mL
MIC (P. aeruginosa strains [1]; Pseudomonas aeruginosa, Strain 8, read-out: MIC): 2 µg/mL
MIC (P. aeruginosa strains [1]; Pseudomonas aeruginosa, Strain 9, read-out: MIC): 32 µg/mL
MIC (P. aeruginosa strains [1]; Pseudomonas aeruginosa, Strain 10, read-out: MIC): 8 µg/mL
MIC (P. aeruginosa strains [1]; Pseudomonas aeruginosa, range over 10 P. aeruginosa strains, read-out: MICs of each agent alone): 0.25 to 32 µg/mL
SMILES: C[C@@H](O)[C@H]1C(=O)N2C(C(=O)O)=C(S[C@@H]3CN[C@H](CNS(N)(=O)=O)C3)[C@H](C)[C@H]12 [Doripenem, doripenem]

MIC (S. aureus strains; [3]): 2 µg/mL
MIC (S. aureus strains; [4]): 1 µg/mL
MIC (S. aureus strains; [5]): 1 µg/mL
MIC (S. aureus strains; [6]): 1 µg/mL
MIC (S. aureus strains; [7]): 2 µg/mL
MIC (S. aureus strains; [8]): 1 µg/mL
MIC (S. aureus strains; [9]): 2 µg/mL
MIC (S. aureus strains; [10]): 2 µg/mL
MIC (S. aureus strains; [11]): 1 µg/mL
MIC (S. aureus strains; [12]): 1 µg/mL
MIC (S. aureus strains; [13]): 2 µg/mL
MIC (S. aureus strains; [14]): 1 µg/mL
MIC (S. aureus strains; [15]): 2 µg/mL
MIC (S. aureus strains; [16]): 1 µg/mL
MIC (S. aureus strains; [17]): 1 µg/mL
MIC (S. aureus strains; [18]): 2 µg/mL
MIC (S. aureus strains; [19]): 2 µg/mL
MIC (S. aureus strains; [20]): 2 µg/mL
MIC (S. aureus strains; [21]): 1 µg/mL
MIC (S. aureus strains; [22]): 0.5 µg/mL
MIC (S. aureus strains; [23]): 1 µg/mL
MIC (S. aureus strains; [24]): 1 µg/mL
MIC (S. aureus strains; [25]): 2 µg/mL
MIC (S. aureus strains; [26]): 2 µg/mL
MIC (S. aureus strains; [27]): 0.5 µg/mL
MIC (S. aureus strains; [28]): 0.5 to 2 µg/mL
SMILES: Nc1nc(/C(=N/O)C(=O)N[C@@H]2C(=O)N3C(C(=O)O)=C(/C=C4\CCN([C@@H]5CCNC5)C4=O)CS[C@H]23)ns1 [Ceftobiprole, ceftobiprole]
